Measurements: patent US12462378B2, “Information processing device, screening device, information processing method, screening method, and program” (Kyoto University, priority 2019, dated 2025)
Where a SMILES comes first, the peptide text is derived from it. The star is where a group is joined. Cbz = O=C(OCc1ccccc1)*; CH2F = FC*

Assays:
[1] = tested on: nerve cells differentiated from iPS cells; test: Prediction model MDL score of nerve cell images versus Z-VAD-FMK concentration; type: cell-based, human; details: FIG. 14, higher score = greater probability that the cell will survive
Description: Activated caspase-3 in apoptotic nerve cells was detected by using a fluorogenic substrate consisting of a four-amino acid peptide DEVD (SEQ ID NO: 1) bound to a nucleic acid binding dye (product name “CellEvent Caspase-3/7 Green Detection Reagent”, Thermo Fisher Scientific Inc.). Since the DEVD peptides inhibit the binding of fluorescent dyes to DNA, the above-described fluorogenic substrate is essentially non-fluorescent. However, when activated caspase-3 in dead cells cleaves the DEVD peptide, a fluorescent dye binds to the DNA to cause fluorescence, which can be detected using a standard FITC green filter set of a standard time lapse imaging system (product name “Incucyte ZOOM”, Essen Bioscience, Ltd.) (exposure time 400 ms). Images were photographed over time every 6 hours after drug administration.
The original size of the single-well image captured by using the time lapse imaging system (product name “Incucyte ZOOM”, Essen Bioscience, Ltd.) was 1,392×1,038 pixels, and four images were cut out from this image and extracted as the cropped image IMGC. The original image was divided evenly into four regions, and square images were taken out from the center of each region. The size of the trimmed cropped image IMGC was selected from 128×128, 256×256, 512×512, 768×768, and 1,020×1,020 in width×height. […]

[2] = tested on: nerve cells differentiated from iPS cells; test: Single cell analysis (single cell RNA sequence, UMAP clustering) of nerve cells with Z-VAD-FMK; type: cell-based, human
Experimental: FIG. 15 is a view showing the schematics of a proposed method. As illustrated in the drawing, Z-VAD-FMK is added to nerve cells and changes in gene expression of individual cells are observed before cell death occurs (before caspase-3 activation occurs) (single cell RNA sequence=WHAT in the drawing). At the same time, the images are acquired, and the CNN-based prediction model MDL is used to check where the changes are occurring (WHERE in the drawing). In this manner, a method for identifying the molecules, where and what is occurring before cell death, is proposed.
Single cell analysis was performed using the above-described proposed method. FIG. 16 is a view illustrating an example of clustering results of cells. While changing the concentration of Z-VAD-FMK added to the nerve cells to 0 [μM], 0.2 [μM], and 25 [μM], the cell population was separated into a total of 15 types of clusters ranging from 0 to 14 by using a visualization method (one type of dimensional compression method) which is called UMAP (uMAP).
FIG. 22 is a view illustrating a relationship between the Z-VAD-FMK concentration and the cluster size. […] As a result, the cluster 12 was identified as a cluster that satisfies the conditions.

COC(=O)C[C@H](NC(=O)[C@H](C)NC(=O)[C@@H](NC(=O)OCc1ccccc1)C(C)C)C(=O)CF [Z-VAD-FMK] (Cbz-Val-Ala-Asp(OMe)-CH2F)
score of the prediction model MDL (probabilistic value related to the life or death of cells) [1]: the higher the Z-VAD-FMK concentration, the higher the score
effect of Z-VAD-FMK concentration on cluster shapes of UMAP expanded cell populations ([2]; 0, 0.2 and 25 μM Z-VAD-FMK, 15 clusters (0 to 14), FIGS. 16 to 21): no effect on most of the cell populations
cluster size (number of cells in cluster 12, caspase-3 activated) ([2]; cluster 12, with addition of Z-VAD-FMK, FIG. 22): the number of cells in its own cluster decreased with the addition of Z-VAD-FMK
